Data published in ChEMBL document CHEMBL1201862, “PubChem BioAssay data set” (2004).
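In this assay, cells in 96-well plates receive the compound at five concentrations for 48 hours. Endpoints are linearly interpolated between the surrounding concentrations. Abbreviation: GI50, concentration required for 50% inhibition of growth.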 Active and inactive are the calls of the source. No stated cut-off is given here; in the data, active = GI50 up to about 1.1 µM and inactive = higher.

What was measured:
Experiment in all cases: growth of human tumour cells (NCI), 48 h
SK-MEL-28 = tested on: SK-MEL-28
Malme-3M = tested on: Malme-3M
PC-3 = tested on: PC-3
HT-29 = tested on: HT-29
MDA-MB-435 = tested on: MDA-MB-435
NCI-H226 = tested on: NCI-H226
SNB-78 = tested on: SNB-78
MDA-N = tested on: MDA-N
M14 = tested on: M14
NCI/ADR-RES = tested on: NCI/ADR-RES
BT-549 = tested on: BT-549
A498 = tested on: A498
UACC-257 = tested on: UACC-257
LXFL 529 = tested on: LXFL 529
EKVX = tested on: EKVX
SW-620 = tested on: SW-620
NCI-H522 = tested on: NCI-H522
UO-31 = tested on: UO-31
SK-MEL-5 = tested on: SK-MEL-5
NCI-H23 = tested on: NCI-H23

Measured: GI50

CCCCCCCCCCCCCCCCCCN(C)CC(COP(=O)([O-])OCC[N+](C)(C)C)OC (stereo not given)
inactive: SK-MEL-28 38.3 µM | Malme-3M 26.7 µM | PC-3 18.1 µM | HT-29 4.94 µM | MDA-MB-435 > 46.9 µM | NCI-H226 16.5 µM | SNB-78 6.32 µM | MDA-N > 100 µM | M14 9.84 µM | NCI/ADR-RES > 64 µM | BT-549 38.5 µM | A498 13.6 µM | UACC-257 35.3 µM | LXFL 529 8.67 µM | EKVX 26.9 µM | SW-620 17.5 µM | NCI-H522 9.51 µM | UO-31 29.5 µM | SK-MEL-5 27.9 µM | NCI-H23 20.2 µM

CCOC(=O)C(=O)Nc1c(CC)cccc1C(C)CC (stereo not given)
inactive: SK-MEL-28 > 100 µM | Malme-3M > 100 µM | HT-29 > 100 µM | NCI-H226 > 100 µM | SNB-78 > 100 µM | M14 > 100 µM | A498 > 100 µM | UACC-257 > 100 µM | LXFL 529 > 100 µM | EKVX > 100 µM | SW-620 > 100 µM | NCI-H522 > 100 µM | UO-31 > 100 µM | SK-MEL-5 > 100 µM | NCI-H23 > 100 µM
